Series [1] has as its target T1, HIV-1 RT-associated RNase H activity (wt RT) (Human immunodeficiency virus type 1 group M subtype B, UniProt P04585).
T1 construct: RT is a heterodimeric (p66/p51) multifunctional enzyme; made in house; host or cells: Escherichia coli strain M15
As to the kind of experiment: HIV-1 DNA polymerase-independent RNase H activity, wt RT. The format is biochemical. The settings on record: for IC50: RNase H IC50, wt RT; for RNase H IC50 / percentage in parenthesis in presence of the highest concentration of inhibitor tested (RNase H): wt RT. The protocol: p6HRT-prot vector was kindly provided by Dr. Stuart Le Grice Laboratory. Heterodimeric RT was expressed essentially as described. Briefly, Escherichia coli strain M15 containing the p6HRT-prot vector were grown up to an OD600 of 0.7 and induced with isopropyl β-D-1-thiogalactopyranoside (IPTG) 1.7 mM for 4 h. Cell pellets were resuspended in Lysis buffer (50 mM sodium phosphate pH 7.8, 0.5 mg/mL lysozyme), incubated on ice for 20 min, added 0.3 M final NaCl, sonicated and centrifuged at 30,000× g for 1 h. The supernatant was loaded into a Ni^2+-sepharose column pre-equilibrated with loading buffer (50 mM sodium phosphate pH 7.8, 0.3 M NaCl, 10% glycerol, 10 mM imidazole) and washed thoroughly with wash buffer (50 mM sodium phosphate pH 6.0, 0.3 M NaCl, 10% glycerol, 80 mM imidazole). RT was gradient-eluted with elute buffer (wash buffer with 0.5 M imidazole). Fractions were collected, protein purity was checked by SDS-PAGE and found to be higher than 90%. RT containing fractions were pooled and diluted 1:1 with dilute buffer (50 mM sodium phosphate pH 7.0, 10% glycerol) then loaded into a Hi-trap Heparine HP GE (Healthcare Lifescience) pre-equilibrated with 10-column volume of loading buffer 2 (50 mM sodium phosphate pH 7.0, 10% glycerol, 150 mM NaCl). Column was then washed with loading buffer 2 and RT was gradient-eluted with elute buffer 2 (50 mM sodium phosphate pH 7.0, 10% glycerol, 150 mM NaCl). Fractions were collected, protein was dialyzed and stored in buffer containing 50 mM Tris HCl pH 7.0, 25 mM NaCl, 1 mM EDTA, 50% glycerol. Catalytic activities and protein concentration were determined. Enzyme-containing fractions were pooled and aliquots were stored at −80 °C.
The RT-associated RNase H activity of wt and mutated HIV RTs was measured as described, in 100 µL reaction volume containing 50 mM Tris HCl pH 7.8, 6 mM MgCl2, 1 mM dithiothreitol (DTT), 80 mM KCl, hybrid RNA/DNA (5’-[…]-3’-Fluorescein, 5’-[…]-3’-Dabcyl), and different amounts of enzymes according to a linear range of dose-response curve—20 ng of wt RT; 50 ng K103N RT; 100 ng V108A RT; 4 ng Y181C RT; 100 ng Q475A RT; 100 ng A502F RT. The reaction mixture was incubated for 1 h at 37 °C, the reaction was stopped by addition of EDTA and products were measured with a Victor 3 (Perkin) at 490/528 nm.

The nature of series [2]: Cytotoxicity in TZMbl cells. The class given is cell-based. As to conditions: human.
The subject of another series is HIV-1 IIIB strain. As to the kind of experiment: Antiviral assay, HIV-1 replication in TZMbl cells (luciferase). The format is cell-based. The settings on record: TZMbl cells; for EC50: Human immunodeficiency virus 1, TZM-bl, HIV-1 IIIB, read-out: HIV-1 EC50 TZMbl Cells.
The nature of series [3]: Cell viability in CEM cells (MTT). As to conditions: human, MTT, 5 days. The format is cell-based. The protocol:
Drug-mediated inhibition of virus-induced cytotoxicity was assayed in TZM-BL cells. Triplicate wells of 96-well plates containing 1 × 10^4 TZMbl cells were infected with HIV-1 IIIB strain at a multiplicity of infection of 0.1. Serial dilutions of drugs were added immediately after infection. Luciferase activity was measured as reported. Two days after infection, the culture medium was removed from each well and 100 µl of Bright Glo reagent (Promega, Luis Obispo, CA) was added to the cells for measurement of luminescence using a Victor 2 luminometer (Perkin). The 50% effective concentration (EC50) was defined as the concentration that caused a 50% reduction of luciferase activity (relative light units) compared to virus control wells. Cell viability in CEM cells was quantified 5 days after infection with the MTT-dye reduction method.

Bounds are passed on as bounds.

The term IC50 denotes the point on the concentration scale where inhibition reaches its midpoint. Lower therefore signals higher potency. In general, CC50 refers to the concentration giving 50% cytotoxicity. In general, EC50 refers to the concentration giving half of the maximal effect. The term melting point denotes the temperature of the solid-liquid transition.

Description for HIV-1 IIIB strain: Drug-mediated inhibition of virus-induced cytotoxicity was assayed in TZM-BL cells. […] Serial dilutions of drugs were added immediately after infection. Luciferase activity was measured as reported [67]. Two days after infection, the culture medium was removed from each well and 100 µl of Bright Glo reagent (Promega, Luis Obispo, CA) was added to the cells for measurement of luminescence using a Victor 2 luminometer (Perkin). […] Cell viability in CEM cells was quantified 5 days after infection with the MTT-dye reduction method.

As for `COc1cccc(NC(=O)c2ccc(C(F)(F)F)nc2Nc2cc(Cl)ccc2C)c1` [Compound 33], in series [1], the IC50 is above 100 µM, the “RNase H IC50” value is “abolished the activity” and the “percentage in parenthesis in presence of the highest concentration of inhibitor tested (RNase H)” value (shortened to “percentage … of inhibitor tested (RNase H)”) is recorded as 54%.
As to `COc1cc(NC(=O)c2ccc(C(F)(F)F)nc2Nc2cc(Cl)ccc2C)cc(OC)c1OC` [Compound 36], in series [2], it took 2.2 ± 0.4 µM to reach half-maximal cytotoxicity (CC50). Moreover, in the series on HIV-1 IIIB strain, the EC50 turned out to be 1.8 ± 0.6 µM and the “SI (selectivity index)” value worked out at 1.2. This compound registered an IC50 in series [1] of 19.4 ± 1.5 µM. In series [3], this compound came in with a half-maximal cytotoxic concentration (CC50) at 5 days of 10.2 µM.
Consider `Cc1ccc(CNC(=O)c2ccc(C(F)(F)F)nc2Nc2cc(Cl)ccc2C)cc1` [Compound 44, 2-((5-Chloro-2-methylphenyl)amino)-N-(4-methylbenzyl)-6-(trifluoromethyl)nicotinamide], for which the CC50 in series [2] was 1.1 µM. Also, in the series on HIV-1 IIIB strain, the EC50 was above 1.1 µM. Besides, in series [1], the IC50 came to 21.3 ± 0.5 µM. This compound displayed a cytotoxic concentration (CC50) at 5 days in series [3] of 3.5 µM.
With `Cc1ccc(Cl)cc1Nc1nc(C(F)(F)F)ccc1C(=O)Nc1cccnc1` [Compound 27], the 50% cytotoxic concentration (CC50) in series [2] worked out at 5.8 ± 0.8 µM. Further, the EC50 with HIV-1 IIIB strain is above 5.8 µM. For the same compound, the IC50 in series [1] was 25 ± 4.9 µM. The same compound showed a CC50 at 5 days in series [3] of 16.2 µM.
For the compound `COc1cccc(OC(=O)c2ccc(C(F)(F)F)nc2Nc2cc(Cl)ccc2C)c1` [Compound 19], in series [1], the half-maximal inhibitory concentration (IC50) is above 100 µM and the “percentage … of inhibitor tested (RNase H)” value worked out at 80%.
Taken in the same sequence, the figures for `Cc1ccc(Cl)cc1Nc1nc(C(F)(F)F)ccc1C(=O)Oc1ccccc1Cl` [Compound 11] were above 100 µM and 92%.
With `COc1ccc(OC(=O)c2ccc(C(F)(F)F)nc2Nc2cc(Cl)ccc2C)cc1OC` [Compound 20, 3,4-Dimethoxyphenyl-2-((5-chloro-2-methylphenyl)amino)-6-(trifluoromethyl)nicotinate], the IC50 in series [1] is 21 ± 11 µM.
Compound `CSc1ccc(NC(=O)c2ccc(C(F)(F)F)nc2Nc2cc(Cl)ccc2C)cc1` [Compound 28, 2-((5-Chloro-2-methylphenyl)amino)-N-(4-(methylthio)phenyl)-6-(trifluoromethyl)nicotinamide] came in with an IC50 in series [1] of 5.9 ± 0.9 µM.
As to `COc1cc(NC(=O)c2ccc(C(F)(F)F)nc2Nc2cc(Cl)ccc2C)cc(OC)c1` [Compound 34], the half-maximal cytotoxic concentration (CC50) in series [2] was 5.3 ± 0.6 µM. In addition, in the series on HIV-1 IIIB strain, the concentration giving a half-maximal response (EC50) is 2 ± 0.3 µM and the “SI (selectivity index)” value is recorded as 2.6. In series [1], this compound had a 50% inhibitory concentration (IC50) of 17.5 ± 3.9 µM. For the same compound, the midpoint of cytotoxicity in series [3], the CC50 at 5 days, lay at 10.4 µM.
The corresponding values for `Cc1cccc(NC(=O)c2ccc(C(F)(F)F)nc2Nc2cc(Cl)ccc2C)c1` [Compound 29] are 3.9 ± 0.9 µM, 2.5 ± 0.4 µM, 1.6, 8.9 ± 0.1 µM and 6.3 µM.
Consider `Cc1ccc(Cl)cc1Nc1nc(C(F)(F)F)ccc1C(N)=O` [Compound 6], for which, in series [1], the 50% inhibitory concentration (IC50) is above 100 µM, the “RNase H IC50” value is “completely inactive” and the “percentage … of inhibitor tested (RNase H)” value turned out to be 87%.
With `Cc1ccc(Cl)cc1Nc1nc(C(F)(F)F)ccc1C(=O)Nc1ccc(C(F)(F)F)cc1` [Compound 37], it took 2.2 ± 0.2 µM to reach half-maximal cytotoxicity in series [2] (CC50). Moreover, the EC50 with HIV-1 IIIB strain was above 2.2 µM. Also, in series [1], half-maximal inhibition (IC50) required 7.8 ± 1.2 µM. Moreover, the CC50 at 5 days in series [3] came out at 4.3 µM.
`Cc1ccc(Cl)cc1Nc1nc(C(F)(F)F)ccc1C(=O)N1CCN(c2ccccc2)CC1` [Compound 48, (2-((5-Chloro-2-methylphenyl)amino)-6-(trifluoromethyl)pyridin-3-yl)(4-phenylpiperazin-1-yl)methanone] showed a melting point of 118 to 120 °C. Moreover, in series [1], the IC50 is above 100 µM and the “percentage … of inhibitor tested (RNase H)” value is recorded as >100 (100%).
For the compound `Cc1ccc(Cl)cc1Nc1nc(C(F)(F)F)ccc1C(=O)NCc1ccccc1Cl` [Compound 38, N-(2-chlorobenzyl)-2-((5-chloro-2-methylphenyl)amino)-6-(trifluoromethyl)nicotinamide], it took 5.7 ± 0.7 µM to reach half-maximal cytotoxicity in series [2] (CC50). Further, the EC50 in the series with HIV-1 IIIB strain was above 5.7 µM. In series [1], this compound showed an IC50 of 19.4 ± 1.1 µM. In addition, the midpoint of cytotoxicity in series [3], the CC50 at 5 days, lay at 12.5 µM.
Turning to `COc1ccc(CNC(=O)c2ccc(C(F)(F)F)nc2Nc2cc(Cl)ccc2C)cc1` [Compound 43, 2-((5-Chloro-2-methylphenyl)amino)-N-(4-methoxybenzyl)-6-(trifluoromethyl)nicotinamide], the CC50 in series [2] was found to be 13.2 ± 1.3 µM. The EC50 in the series on HIV-1 IIIB strain was above 10 µM. This compound also came in with an IC50 in series [1] of 30.4 ± 3.9 µM. This compound also displayed a CC50 at 5 days in series [3] of 20 µM.
`Cc1ccc(Cl)cc1Nc1nc(C(F)(F)F)ccc1C(=O)NCc1ccc(F)cc1` [Compound 41, 2-((5-Chloro-2-methylphenyl)amino)-N-(4-fluorobenzyl)-6-(trifluoromethyl)nicotinamide] came in with a half-maximal cytotoxic concentration (CC50) in series [2] of 6 ± 0.6 µM. Also, the concentration giving a half-maximal response (EC50) with HIV-1 IIIB strain was above 6 µM. Besides, in series [1], the IC50 is 23.3 ± 3.1 µM. Besides, the midpoint of cytotoxicity in series [3], the CC50 at 5 days, lay at 11.6 µM.
As for `Cc1ccc(Cl)cc1Nc1nc(C(F)(F)F)ccc1C(=O)Oc1cccc(Cl)c1` [Compound 12], in series [1], the IC50 is above 100 µM and the “percentage … of inhibitor tested (RNase H)” value was 98%.
With `COc1ccc(NC(=O)c2ccc(C(F)(F)F)nc2Nc2cc(Cl)ccc2C)cc1Cl` [Compound 32], in series [1], the IC50 is above 100 µM and the “percentage … of inhibitor tested (RNase H)” value was >100 (100%).
Regarding `Cc1ccc(Cl)cc1Nc1nc(C(F)(F)F)ccc1C(=O)Oc1c(Cl)cc(Cl)cc1Cl` [Compound 15], the concentration for half-maximal inhibition (IC50) in series [1] stood at 31.8 ± 3.5 µM.
With `Cc1ccc(Cl)cc1Nc1nc(C(F)(F)F)ccc1C(=O)Nc1ccc(Cl)cc1Cl` [Compound 31], in series [2], the CC50 is 4.7 ± 1.7 µM. For the same compound, in the series with HIV-1 IIIB strain, the EC50 is above 4.7 µM. The compound further registered a half-inhibitory concentration (IC50) in series [1] of 8.8 ± 0.5 µM. The CC50 at 5 days in series [3] worked out at 7.8 µM.
For the compound `Cc1ccc(Cl)cc1Nc1nc(C(F)(F)F)ccc1C(=O)Nc1cccc(Cl)c1` [Compound 30], it took 3.9 ± 0.9 µM to reach half-maximal cytotoxicity in series [2] (CC50). Also, the EC50 in the series on HIV-1 IIIB strain is above 3.9 µM. 4 ± 2.2 µM corresponded to half-maximal inhibition in series [1] (IC50). In addition, it took 8.4 µM to reach half-maximal cytotoxicity in series [3] (CC50 at 5 days).
For the compound `COc1cc(OC(=O)c2ccc(C(F)(F)F)nc2Nc2cc(Cl)ccc2C)cc(OC)c1OC` [Compound 22, 3,4,5-Trimethoxyphenyl 2-((5-chloro-2-methylphenyl)amino)-6-(trifluoromethyl)nicotinate], the melting point was in the range of 138 to 140 °C. This compound returned an IC50 in series [1] of 17.3 ± 1.3 µM.
For the compound `Cc1ccc(Cl)cc1Nc1nc(C(F)(F)F)ccc1C(=O)Oc1ccc(Cl)cc1Cl` [Compound 14], in series [1], the IC50 is above 100 µM, the “RNase H IC50” value is recorded as “abolished the activity” and the “percentage … of inhibitor tested (RNase H)” value turned out to be 98%.
`Cc1ccc(Cl)cc1Nc1nc(C(F)(F)F)ccc1C(=O)Oc1ccc(O)cc1` [Compound 18, 4-Hydroxyphenyl 2-((5-chloro-2-methylphenyl)amino)-6-(trifluoromethyl)nicotinate] had a melting point of 184 to 186 °C. Also, in series [1], the concentration for half-maximal inhibition (IC50) was 20 ± 1.3 µM.
`CCOC(=O)CNC(=O)c1ccc(C(F)(F)F)nc1Nc1cc(Cl)ccc1C` [Compound 26, Ethyl 2-(2-((5-chloro-2-methylphenyl)amino)-6-(trifluoromethyl)nicotinamido)acetate] returned a melting point of 128 to 130 °C. Also, in series [1], the IC50 is above 100 µM and the “percentage … of inhibitor tested (RNase H)” value is given as >100 (100%).
`COc1ccc(NC(=O)c2ccc(C(F)(F)F)nc2Nc2cc(Cl)ccc2C)cc1OC` [Compound 35] returned an IC50 in series [1] of 22.4 ± 4 µM.

The values above are taken from article PMC7144554, “2-(Arylamino)-6-(trifluoromethyl)nicotinic Acid Derivatives: New HIV-1 RT Dual Inhibitors Active on Viral Replication” (Molecules, 2020).
